{
  "source": "patent US20050227918A1",
  "about": "“Method for assaying susceptibility to cancer therapy in a subject by assaying for tumors of P53” (priority 2004, published 2005)",
  "key": {"[1]": {"tested_on": "p53", "assay": "siRNA effect on steady state levels of p53 mutant in cells expressing 72P 173L or 72R 173L", "format": "cell-based", "conditions": "siRNA 10-100 μM as printed", "procedure": "To investigate this small inhibitory RNA (“siRNA”) oligonucleotides were used. The sequences:\nThe siRNA oligos were transfected into cells, in amounts ranging from 10-100 μM, using commercially available reagents. The siRNA was introduced into cells expressing either the 72P 173L mutant or the 72R173L mutant. Both were shown, supra, to inhibit p73."}, "[2]": {"tested_on": "p53-p73 complexes", "assay": "p53-p73 complexes and p73 in Hacat cells after siRNA and drug treatment", "format": "cell-based", "conditions": "100 nM siRNA", "procedure": "As a follow up to the work, supra, experiments were carried out to determine if the siRNA influenced association of the mutant p53 molecules with p73. […] Cell lysates were prepared after 24 hours, and p53-p73 complexes were analyzed, as described supra."}, "[3]": {"tested_on": "Saos-2 cells", "format": "cell-based", "procedure": "The Saos-2 cells which had been engineered to stably express 72R and 72P mutants were then tested, in assays designed to determine whether p53 siRNA impacted drug resistance. Saos-2 cells which expressed 72R173Lp53 were treated with 100 nM of siRNA for p53, or with the same amount of PGL siRNA. […] Survival was assessed via colony forming ability."}, "[4]": {"tested_on": "Hacat cells", "assay": "Drug-induced apoptosis after p53 siRNA", "format": "cell-based", "conditions": "100 nM siRNA, drugs 48 hours later"}, "[5]": {"tested_on": "p53", "assay": "siRNA and drug effect on p53 levels in squamous carcinoma cell lines (Western blotting)", "format": "cell-based", "conditions": "head and neck squamous cells; siRNA 100 nM; doxorubicin 1 μg/ml, taxol 500 ng/ml, cisplatin 10 μg/ml; 24 hours", "procedure": "After 24 hours, cell lysates were prepared and analyzed via Western blotting."}, "[6]": {"tested_on": "H1299 p53-/- cells", "assay": "Flow cytometric analysis of apoptosis (sub-G1) and cell cycle in H1299 cells inducibly expressing 72R or 72P wild-type p53", "format": "cell-based, Human", "conditions": "for apoptosis and cell cycle effect on induction of 72P p53: H1299 induced to express 72P wild-type p53; for apoptosis and cell cycle effect on induction of 72P p53 / apoptosis and cell cycle effect on induction of 72R p53: cisplatin 1 μg/ml, taxol 500 ng/ml, flow cytometry after 24 hours; for apoptosis and cell cycle effect on induction of 72R p53: H1299 induced to express 72R wild-type p53; for difference in apoptosis between 72R and 72P: H1299 clones, doxorubicin 1 μg/ml; for difference in apoptosis between 72R and 72P / apoptosis (sub-G1 fraction), 72R versus 72P expressing cells: camptothecin 5 μM, 24 hours; for apoptosis (sub-G1 fraction), 72R versus 72P expressing cells: induced H1299, 5-FU 50 μg/ml, cisplatin, taxol, etoposide, doxorubicin", "text": "72R and 72P wild-type p53 plasmids were constructed by subcloning the inserts from pArgSP53 and pProSP53 (See Matlashewski, et al., Mol. Cell. Biol., 7:961-963 (1987), incorporated by reference) into commercially available pTRE, resulting in pTRE 72R p53 and pTRE 72P p53 plasmids. Human H1299 p53−/− cells, which were maintained in DMEM+10% fetal bovine serum, were transfected with the pTRE 72R p53 and pTRE 72P p53 plasmids in accordance with standard procedures, resulting in H1299 cells lines which inducibly express 72R or 72P p53 protein. These cell lines were grown in DMEM 10% FCS supplemented with 0.5 mg/ml G418 and 0.5 μg/ml puromycin. Expression of 72R or 72P wild-type p53 was induced in H1299 cells by doxycycline or non-induced. […] Control cells were not exposed to drugs. Flow cytometric analysis was then performed after 24 hours as described in Bergamaschi et al., Cancer Cell, 3:387-402 (2003), incorporated by reference. A minimum of six independent 72R-inducible and 72P-inducible clones were analyzed, to obviate the effect of clonal variation.\nFurther tests examined the cellular responses to the anticancer agents camptothecin and 5-fluorouracil (FU). H1299 cells were induced to express equal levels of 72R or 72P wild-type p53, as described supra, or not induced. […] The cells were then exposed to camptothecin (5 μM) or 5-FU (50 μg/ml). Flow cytometric analysis was performed after 24 hours.\nThree experiments were conducted, each analyzing two independent clones of 72R-expressing H1299 cells and two independent clones of 72P-expressing H1299 cells. […] Control cells were not exposed to drugs, and control cells for camptothecin and 5-FU received the drug vehicle only. After 24 hours, apoptosis was determined by flow cytometry as previously described."}, "[7]": {"tested_on": "p73", "assay": "Western blotting of endogenous p73 steady state levels following drug treatment", "format": "cell-based", "conditions": "24 hours; for levels of p73 in HN30: head and neck squamous cell line HN30", "procedure": "The squamous carcinoma cell lines (“SCC”) tested included cells of the head and neck, cervix, vulva, and immortalized skin […]. […] The cells were exposed to the drugs for 24 hours, after which they were harvested in a lysis buffer (50 mM Tris, 250 mM NaCl, 0.1% Nonidet NP-40, 5 mM EDTA, 1 mM PMSF, with a protease inhibitor cocktail). […] The immunoprecipitates were then resolved, on 10% polyacrylamide gels, and immunoblotted with the antibody, and a secondary anti-mouse light chain antibody conjugated to horseradish peroxidase, which was then visualized using standard methods."}, "[8]": {"tested_on": "Saos-2 cells", "assay": "Apoptosis (sub-G1) in Saos-2 cells expressing dominant-negative p73 inhibitors", "format": "cell-based", "conditions": "for sensitivity to apoptosis of Saos-2 cells expressing p73Δ2 and p73DD: dominant-negative p73 inhibitors; for sensitivity to apoptosis of Saos-2 lines expressing p73DD (L371P): inactive point mutation", "procedure": "The Saos-2 cells were maintained, as described, supra, and cell lines stably expressing the dominant negative inhibitors were generated by transfection, and then cultivation in the presence of 400 μg/ml of G418. Isolated colonies were ring cloned, and then the expression of transfected sequences was confirmed.\nThe cells, when in exponential growth phase, received 10 μg of a plasmid encoding p73, and 3 μg of pcDNA3CD20. Twenty-four hours after transfection, cells were harvested, stained with propidiumiodide, and apoptosis was determined as percentage of sub-G1 cells.\nIn brief, this was determined by seeding 10^2-10^6 cells, in quadruplicate, onto 9 cm tissue culture dishes, and were treated, 24 hours later, for 2 hours, with cytotoxic drugs at various concentrations. Following drug exposure, the cells were grown until visible colonies appeared. They were then fixed in methanol, and stained with Giemsa. Survival was calculated relative to the cells receiving the drug vehicle alone."}, "[9]": {"tested_on": "p53", "assay": "Western Blot analysis of p53 expression in transfected H1299 cells", "format": "cell-based, Human", "conditions": "cisplatin 1 μg/ml, 24 hours; each of the four variants 46A/46S 72R/72P", "procedure": "H1299 cells were cotransfected with pcDNA3 CD20 and plasmids expressing 46A 72R, 46A 72P, 46S 72R, or 46S 72P wild-type p53 or with an empty vector (no p53, as a control), as described supra. […] After 24 hours, the cells were analyzed by flow cytometry. Western Blot analysis of p53 expression was also performed."}, "[10]": {"tested_on": "H1299 cells", "assay": "Colony-survival assays of H1299 cells expressing p53 variants", "format": "cell-based, Human", "procedure": "The cytotoxicity of anticancer agents was determined in colony-survival assays of H1299 cells using standard protocols, following Bergamaschi, et al., supra, and as per the earlier examples. Briefly, H1299 cells were treated with doxycycline to induce p53 and plated at multiple densities. […] After drug exposure, cells were re-plated in drug free medium and grown until the appearance of visible colonies. Each drug exposure was done in triplicate in at least three experiments.\nFurther tests were performed to see if 46S influences cellular sensitivity to anticancer drugs in 72R-expressing cells."}},
  "note": "“Also recorded” adds a separate entry of the source. d = 2'-deoxy (DNA); r = 2'-OH (RNA)",
  "data": [
    {"molecule": "p53 siRNA: small inhibitory RNA oligonucleotides, SEQ ID NO: 1 CUACUUCCUGAAAACAACG(d)TT and SEQ ID NO: 2 CGUUGUUUUCAGGAAGUAGd(TT) (chain 1 CUACUUCCUGAAAACAACGTT; chain 2 CGUUGUUUUCAGGAAGUAGTT; sugars from the 5' end r19 d2, backbone not given here)", "values": [
      {"measurement": "steady state levels of p53 polymorphic variants of the mutant", "setting": "[1]", "result": "dose dependent reduction"},
      {"measurement": "amount of p53 which associated with p73", "setting": "[2]", "result": "clear decrease"},
      {"measurement": "increase in p73 production associated with drug exposure", "setting": "[2]", "result": "not affected"},
      {"measurement": "effect of siRNA on drug sensitivity, 143L mutant", "setting": "[3]; Saos-2", "result": "similarly small effect"},
      {"measurement": "sensitivity to cisplatin and doxyrubicin of cell lines expressing 175H, 179Y, 179R, 245S, 248W, 249S, 273C and 282W", "setting": "[3]; both polymorphic forms", "result": "increased sensitivity"},
      {"measurement": "apoptosis after siRNA followed by anticancer drugs, compared to controls", "setting": "[4]", "result": "clear increase in apoptosis"},
      {"measurement": "p53 levels", "setting": "[5]", "result": "reduced steady state levels of p53; also recorded: downregulated"}
    ]},
    {"molecule": "CC(=O)O[C@H]1C(=O)[C@@]2(C)[C@H]([C@H](OC(=O)c3ccccc3)[C@]3(O)C[C@H](OC(=O)[C@H](O)[C@@H](NC(=O)c4ccccc4)c4ccccc4)C(C)=C1C3(C)C)[C@]1(OC(C)=O)CO[C@@H]1C[C@@H]2O", "note": "[taxol]", "values": [
      {"measurement": "apoptosis and cell cycle effect on induction of 72P p53", "setting": "[6]", "result": "minimal apoptosis but predominantly G1 arrest"},
      {"measurement": "apoptosis and cell cycle effect on induction of 72R p53", "setting": "[6]", "result": "increased sub-G1 fraction and a smaller G1 peak"},
      {"measurement": "levels of p73 in HN30", "setting": "[7]", "result": "increased the levels of p73"},
      {"measurement": "p53 levels", "setting": "[5]", "result": "unaffected"},
      {"measurement": "sensitivity to apoptosis of Saos-2 cells expressing p73Δ2 and p73DD", "setting": "[8]", "result": "less sensitive to apoptosis"},
      {"measurement": "sensitivity to apoptosis of Saos-2 lines expressing p73DD (L371P)", "setting": "[8]", "result": "sensitivity similar to control Saos-2 cells"}
    ]},
    {"molecule": "N.N.[Cl][Pt][Cl]", "note": "[cisplatin]", "values": [
      {"measurement": "apoptosis and cell cycle effect on induction of 72P p53", "setting": "[6]", "result": "minimal apoptosis but predominantly G1 arrest"},
      {"measurement": "apoptosis and cell cycle effect on induction of 72R p53", "setting": "[6]", "result": "increased sub-G1 fraction and a smaller G1 peak"},
      {"measurement": "levels of p73 in HN30", "setting": "[7]", "result": "increased the levels of p73"},
      {"measurement": "levels of p53 protein after treatment", "setting": "[9]", "result": "increased"},
      {"measurement": "p53 levels", "setting": "[5]", "result": "unaffected"},
      {"measurement": "sensitivity of cells expressing 46A 72P p53 versus 46S 72P p53", "setting": "[10]", "result": "similar"},
      {"measurement": "sensitivity to apoptosis of Saos-2 cells expressing p73Δ2 and p73DD", "setting": "[8]", "result": "less sensitive to apoptosis"},
      {"measurement": "sensitivity to apoptosis of Saos-2 lines expressing p73DD (L371P)", "setting": "[8]", "result": "sensitivity similar to control Saos-2 cells"}
    ]},
    {"molecule": "CC[C@@]1(O)C(=O)OCc2c1cc1n(c2=O)Cc2cc3ccccc3nc2-1", "note": "[camptothecin]", "values": [
      {"measurement": "difference in apoptosis between 72R and 72P", "setting": "[6]", "result": "twofold"},
      {"measurement": "apoptosis (sub-G1 fraction), 72R versus 72P expressing cells", "setting": "[6]", "result": "apoptosis was always higher in cells expressing the 72R p53 variant"}
    ]},
    {"molecule": "O=c1[nH]cc(F)c(=O)[nH]1", "note": "[5-FU, 5-fluorouracil]", "values": [
      {"measurement": "apoptosis (sub-G1 fraction), 72R versus 72P expressing cells", "setting": "[6]", "result": "apoptosis was always higher in cells expressing the 72R p53 variant"}
    ]},
    {"molecule": "COc1cccc2c1C(=O)c1c(O)c3c(c(O)c1C2=O)C[C@@](O)(C(=O)CO)C[C@@H]3O[C@H]1C[C@H](N)[C@H](O)[C@H](C)O1", "note": "[doxorubicin]", "values": [
      {"measurement": "difference in apoptosis between 72R and 72P", "setting": "[6]", "result": "eightfold"},
      {"measurement": "p73 level, all cell lines", "setting": "[7]; 1 μg/ml doxorubicin, squamous carcinoma cell lines and Saos-2", "result": "increased p73 in all cell lines"},
      {"measurement": "levels of p73 in HN30", "setting": "[7]", "result": "increased the levels of p73"},
      {"measurement": "p53 levels", "setting": "[5]", "result": "unaffected"},
      {"measurement": "cytotoxic effect in cells expressing 46A 72R p53 relative to 46S 72R p53", "setting": "[10]", "result": "diminished"},
      {"measurement": "sensitivity of cells expressing 46A 72P p53 versus 46S 72P p53", "setting": "[10]", "result": "similar"},
      {"measurement": "sensitivity to apoptosis of Saos-2 cells expressing p73Δ2 and p73DD", "setting": "[8]", "result": "less sensitive to apoptosis"},
      {"measurement": "sensitivity to apoptosis of Saos-2 lines expressing p73DD (L371P)", "setting": "[8]", "result": "sensitivity similar to control Saos-2 cells"}
    ]}
  ]
}
